Tests used:
Experiment in all cases: radiometric filter-binding kinase assay
[1] = target: PRKACA (human) (UniProt P17612)
[2] = test system: PAK2 (human), Q13177 [T402E]; conditions: compound 0.1 µM
[3] = target: FLT1 (human) (UniProt P17948)
[4] = target: DYRK2 (human) (UniProt Q92630)
[5] = target: SRPK1 (human) (UniProt Q96SB4)
[6] = target: MAPK10 (human) (UniProt P53779); conditions: compound 0.1 µM
[7] = target: RIPK2 (human) (UniProt O43353); conditions: compound 0.1 µM
[8] = target: CHEK1 (human) (UniProt O14757)
[9] = target: MAP2K6 (human) (UniProt P52564); conditions: compound 0.1 µM
[10] = target: PHKG1 (human) (UniProt Q16816)
[11] = target: ERBB4 (human) (UniProt Q15303)
[12] = target: RPS6KA3 KD1 KD2 (human) (UniProt P51812)
[13] = target: BTK (human) (UniProt Q06187)
[14] = target: AURKA (human) (UniProt O14965); conditions: compound 0.1 µM
[15] = target: PIM2 (human) (UniProt Q9P1W9)
[16] = target: MINK1 (human) (UniProt Q8N4C8)
[17] = target: GCK (human) (UniProt Q12851)
[18] = target: BRSK1 (human) (UniProt Q8TDC3); conditions: compound 0.1 µM
[19] = target: PIM3 (human) (UniProt Q86V86)
[20] = target: AURKB (human) (UniProt Q96GD4)
[21] = target: MST4 (human) (UniProt Q9P289)
[22] = target: EPHA2 (human) (UniProt P29317)
[23] = target: TAOK1 (human) (UniProt Q7L7X3); conditions: compound 0.1 µM
[24] = target: MAPKAPK5 (human) (UniProt Q8IW41)
[25] = target: MAP2K2 (human) (UniProt P36507); conditions: compound 0.1 µM
[26] = target: MAPK15 (human) (UniProt Q8TD08)
[27] = target: CDK2 CCNA2 (human) (UniProt P20248+P24941)
[28] = test system: SGK1 (human), O00141 [S422D]
[29] = target: MAPK12 (human) (UniProt P53778)
[30] = target: INSRR (human) (UniProt P14616)
[31] = target: CSNK2A1 (human) (UniProt P68400)
[32] = target: PRKCA (human) (UniProt P17252)
[33] = target: MAPKAPK3 (human) (UniProt Q16644); conditions: compound 0.1 µM
[34] = target: FGFR1 (human) (UniProt P11362)
[35] = target: MELK (human) (UniProt Q14680)
[36] = target: EEF2K (human) (UniProt O00418)

Sequence of INSRR (human) (P14616 whole entry, looked up): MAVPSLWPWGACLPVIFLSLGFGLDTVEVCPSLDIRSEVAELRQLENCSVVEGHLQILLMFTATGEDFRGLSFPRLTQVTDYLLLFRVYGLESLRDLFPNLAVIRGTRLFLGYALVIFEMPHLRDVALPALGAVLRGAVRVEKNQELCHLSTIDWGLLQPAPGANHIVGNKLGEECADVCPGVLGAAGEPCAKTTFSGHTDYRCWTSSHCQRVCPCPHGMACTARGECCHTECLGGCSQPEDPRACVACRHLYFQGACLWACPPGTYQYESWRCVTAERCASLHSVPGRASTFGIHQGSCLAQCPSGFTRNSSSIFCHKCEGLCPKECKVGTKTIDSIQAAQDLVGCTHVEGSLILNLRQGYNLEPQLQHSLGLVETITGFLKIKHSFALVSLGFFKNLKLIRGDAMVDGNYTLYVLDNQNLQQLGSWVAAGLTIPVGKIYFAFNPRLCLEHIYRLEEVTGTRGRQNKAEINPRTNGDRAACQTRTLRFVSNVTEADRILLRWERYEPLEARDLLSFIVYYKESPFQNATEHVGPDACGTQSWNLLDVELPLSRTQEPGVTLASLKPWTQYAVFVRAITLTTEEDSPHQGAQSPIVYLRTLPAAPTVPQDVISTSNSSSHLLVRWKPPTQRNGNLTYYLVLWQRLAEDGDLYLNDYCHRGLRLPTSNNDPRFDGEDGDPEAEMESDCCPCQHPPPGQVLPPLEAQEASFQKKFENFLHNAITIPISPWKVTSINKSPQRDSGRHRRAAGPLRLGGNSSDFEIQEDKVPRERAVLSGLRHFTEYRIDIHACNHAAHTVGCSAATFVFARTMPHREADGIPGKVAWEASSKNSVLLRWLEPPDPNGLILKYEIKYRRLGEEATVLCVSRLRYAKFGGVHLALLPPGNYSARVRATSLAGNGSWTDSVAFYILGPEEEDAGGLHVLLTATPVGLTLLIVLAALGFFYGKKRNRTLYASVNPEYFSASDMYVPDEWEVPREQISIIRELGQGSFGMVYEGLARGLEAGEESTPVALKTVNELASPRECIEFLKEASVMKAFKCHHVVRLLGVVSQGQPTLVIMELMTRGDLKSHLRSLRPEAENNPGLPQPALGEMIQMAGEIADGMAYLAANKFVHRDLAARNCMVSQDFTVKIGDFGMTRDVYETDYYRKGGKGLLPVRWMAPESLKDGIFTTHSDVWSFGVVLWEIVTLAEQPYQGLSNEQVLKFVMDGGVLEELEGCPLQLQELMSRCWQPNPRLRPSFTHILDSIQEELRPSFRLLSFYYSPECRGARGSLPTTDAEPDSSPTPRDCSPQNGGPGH
Sequence of GCK (human) (Q12851 whole entry, looked up): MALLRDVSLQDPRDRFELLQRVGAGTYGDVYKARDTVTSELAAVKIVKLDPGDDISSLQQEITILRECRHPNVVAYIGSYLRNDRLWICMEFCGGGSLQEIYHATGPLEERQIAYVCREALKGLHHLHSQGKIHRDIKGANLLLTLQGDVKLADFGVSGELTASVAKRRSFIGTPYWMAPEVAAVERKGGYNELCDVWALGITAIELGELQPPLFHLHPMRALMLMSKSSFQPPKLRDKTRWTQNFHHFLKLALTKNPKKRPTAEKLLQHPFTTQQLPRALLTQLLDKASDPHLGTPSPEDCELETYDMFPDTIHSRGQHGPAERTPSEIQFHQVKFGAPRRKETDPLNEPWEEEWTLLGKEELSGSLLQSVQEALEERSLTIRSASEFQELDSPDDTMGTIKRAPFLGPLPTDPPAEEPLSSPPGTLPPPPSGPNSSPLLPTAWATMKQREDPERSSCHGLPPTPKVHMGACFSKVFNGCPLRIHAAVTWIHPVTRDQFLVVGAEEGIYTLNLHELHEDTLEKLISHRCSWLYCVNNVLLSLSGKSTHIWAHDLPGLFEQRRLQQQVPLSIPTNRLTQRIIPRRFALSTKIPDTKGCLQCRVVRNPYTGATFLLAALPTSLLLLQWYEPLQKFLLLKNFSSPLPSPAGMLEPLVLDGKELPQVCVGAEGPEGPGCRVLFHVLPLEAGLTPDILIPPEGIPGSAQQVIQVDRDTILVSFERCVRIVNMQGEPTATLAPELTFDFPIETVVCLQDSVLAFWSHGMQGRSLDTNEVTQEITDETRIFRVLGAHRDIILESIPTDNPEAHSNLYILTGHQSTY
Sequence of MAPKAPK5 (human) (Q8IW41 whole entry, looked up): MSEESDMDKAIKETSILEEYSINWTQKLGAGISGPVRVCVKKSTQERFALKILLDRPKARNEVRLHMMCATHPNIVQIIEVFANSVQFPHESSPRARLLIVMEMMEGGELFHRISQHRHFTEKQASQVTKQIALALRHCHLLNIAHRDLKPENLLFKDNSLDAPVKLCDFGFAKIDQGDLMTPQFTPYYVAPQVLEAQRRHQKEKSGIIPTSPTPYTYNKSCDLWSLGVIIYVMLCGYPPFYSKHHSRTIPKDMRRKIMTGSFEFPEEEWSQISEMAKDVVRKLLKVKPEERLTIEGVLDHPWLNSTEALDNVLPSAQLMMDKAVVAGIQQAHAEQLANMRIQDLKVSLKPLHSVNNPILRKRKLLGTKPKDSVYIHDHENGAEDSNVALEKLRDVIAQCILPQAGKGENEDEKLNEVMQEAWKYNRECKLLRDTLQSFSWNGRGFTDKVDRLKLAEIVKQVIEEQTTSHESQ
Sequence of ERBB4 (human) (Q15303 whole entry, looked up): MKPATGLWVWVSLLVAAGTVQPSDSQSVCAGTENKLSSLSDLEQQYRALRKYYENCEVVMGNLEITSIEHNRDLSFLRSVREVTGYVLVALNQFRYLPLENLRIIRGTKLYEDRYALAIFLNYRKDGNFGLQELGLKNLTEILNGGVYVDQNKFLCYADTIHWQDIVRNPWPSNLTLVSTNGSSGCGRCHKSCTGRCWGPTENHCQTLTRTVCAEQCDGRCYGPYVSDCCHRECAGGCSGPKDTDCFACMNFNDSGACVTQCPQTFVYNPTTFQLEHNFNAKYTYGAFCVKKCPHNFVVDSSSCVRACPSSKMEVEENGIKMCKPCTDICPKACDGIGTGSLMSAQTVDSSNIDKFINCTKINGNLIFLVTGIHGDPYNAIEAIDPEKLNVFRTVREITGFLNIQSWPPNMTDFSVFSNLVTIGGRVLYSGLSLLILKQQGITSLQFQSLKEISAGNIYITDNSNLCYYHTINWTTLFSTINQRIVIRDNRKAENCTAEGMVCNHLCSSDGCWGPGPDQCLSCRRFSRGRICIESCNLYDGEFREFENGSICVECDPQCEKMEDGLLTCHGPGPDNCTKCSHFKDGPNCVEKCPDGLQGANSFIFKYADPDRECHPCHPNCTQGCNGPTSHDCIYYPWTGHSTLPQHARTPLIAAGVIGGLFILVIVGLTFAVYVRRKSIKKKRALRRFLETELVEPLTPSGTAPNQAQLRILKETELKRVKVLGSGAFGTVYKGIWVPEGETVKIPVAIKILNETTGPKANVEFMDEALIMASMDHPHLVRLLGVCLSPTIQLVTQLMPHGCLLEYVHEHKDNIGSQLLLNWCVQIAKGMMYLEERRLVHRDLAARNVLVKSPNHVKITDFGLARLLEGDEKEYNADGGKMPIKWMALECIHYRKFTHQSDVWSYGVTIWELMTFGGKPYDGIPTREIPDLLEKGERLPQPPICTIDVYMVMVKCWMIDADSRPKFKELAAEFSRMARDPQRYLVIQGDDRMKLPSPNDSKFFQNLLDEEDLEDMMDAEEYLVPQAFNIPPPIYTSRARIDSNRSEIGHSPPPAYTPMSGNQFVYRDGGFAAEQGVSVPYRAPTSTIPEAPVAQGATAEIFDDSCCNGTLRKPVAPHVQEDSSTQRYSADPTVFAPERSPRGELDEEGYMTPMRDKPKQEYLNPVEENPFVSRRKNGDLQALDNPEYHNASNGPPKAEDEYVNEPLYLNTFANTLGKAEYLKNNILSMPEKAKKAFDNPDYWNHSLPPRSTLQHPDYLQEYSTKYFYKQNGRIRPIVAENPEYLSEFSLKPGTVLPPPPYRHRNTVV
Sequence of MELK (human) (Q14680 whole entry, looked up): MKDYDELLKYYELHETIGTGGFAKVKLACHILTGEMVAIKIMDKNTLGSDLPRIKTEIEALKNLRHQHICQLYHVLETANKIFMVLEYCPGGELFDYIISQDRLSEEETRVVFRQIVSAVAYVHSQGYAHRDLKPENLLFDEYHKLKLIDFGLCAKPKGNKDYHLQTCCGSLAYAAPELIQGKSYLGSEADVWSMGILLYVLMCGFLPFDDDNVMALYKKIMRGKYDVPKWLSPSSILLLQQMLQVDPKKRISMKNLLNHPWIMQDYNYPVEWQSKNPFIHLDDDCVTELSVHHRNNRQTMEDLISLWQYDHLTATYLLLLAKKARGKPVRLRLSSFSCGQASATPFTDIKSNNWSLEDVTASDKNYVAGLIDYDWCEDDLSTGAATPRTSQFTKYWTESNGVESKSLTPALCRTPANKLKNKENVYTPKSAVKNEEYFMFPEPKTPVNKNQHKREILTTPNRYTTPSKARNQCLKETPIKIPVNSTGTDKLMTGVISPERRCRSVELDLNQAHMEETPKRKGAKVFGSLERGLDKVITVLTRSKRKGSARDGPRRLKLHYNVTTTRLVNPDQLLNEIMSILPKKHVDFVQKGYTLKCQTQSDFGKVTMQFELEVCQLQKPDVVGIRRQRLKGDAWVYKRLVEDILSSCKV
Sequence of AURKB (human) (Q96GD4 whole entry, looked up): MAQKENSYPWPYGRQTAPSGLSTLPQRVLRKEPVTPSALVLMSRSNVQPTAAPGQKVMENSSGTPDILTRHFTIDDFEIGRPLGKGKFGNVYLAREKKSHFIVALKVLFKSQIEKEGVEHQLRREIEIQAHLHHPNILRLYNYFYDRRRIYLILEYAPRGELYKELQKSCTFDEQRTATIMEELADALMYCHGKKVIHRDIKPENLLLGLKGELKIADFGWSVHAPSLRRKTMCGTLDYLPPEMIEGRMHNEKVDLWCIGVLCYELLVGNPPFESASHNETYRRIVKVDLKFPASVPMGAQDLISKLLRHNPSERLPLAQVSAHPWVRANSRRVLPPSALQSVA

- residual activity ([1]; compound 0.1 µM): 91%
- residual activity ([1]; compound 1.0 µM): 104%
- residual activity ([1]; compound 10.0 µM): 97%
- residual activity [2]: 99%
- residual activity ([3]; compound 0.1 µM): 98%
- residual activity ([3]; compound 1.0 µM): 63%
- residual activity ([3]; compound 10.0 µM): 15%
- residual activity ([4]; compound 0.1 µM): 101%
- residual activity ([4]; compound 1.0 µM): 20%
- residual activity ([4]; compound 10.0 µM): 2%
- residual activity ([5]; compound 0.1 µM): 82%
- residual activity ([5]; compound 1.0 µM): 104%
- residual activity ([5]; compound 10.0 µM): 50%
- residual activity [6]: 73%
- residual activity [7]: 55%
- residual activity ([8]; compound 0.1 µM): 112%
- residual activity ([8]; compound 1.0 µM): 108%
- residual activity ([8]; compound 10.0 µM): 79%
- residual activity [9]: 97%
- residual activity ([10]; compound 0.1 µM): 34%
- residual activity ([10]; compound 1.0 µM): 3%
- residual activity ([10]; compound 10.0 µM): 0%
- residual activity ([11]; compound 0.1 µM): 105%
- residual activity ([11]; compound 1.0 µM): 86%
- residual activity ([11]; compound 10.0 µM): 71%
- residual activity ([12]; compound 0.1 µM): 96%
- residual activity ([12]; compound 1.0 µM): 97%
- residual activity ([13]; compound 0.1 µM): 89%
- residual activity ([13]; compound 1.0 µM): 96%
- residual activity [14]: 78%
- residual activity ([15]; compound 0.1 µM): 104%
- residual activity ([15]; compound 1.0 µM): 92%
- residual activity ([15]; compound 10.0 µM): 75%
- residual activity ([16]; compound 0.1 µM): 68%
- residual activity ([16]; compound 1.0 µM): 19%
- residual activity ([16]; compound 10.0 µM): 2%
- residual activity ([17]; compound 0.1 µM): 8%
- residual activity ([17]; compound 1.0 µM): 3%
- residual activity ([17]; compound 10.0 µM): 1%
- residual activity [18]: 84%
- residual activity ([19]; compound 0.1 µM): 90%
- residual activity ([19]; compound 1.0 µM): 86%
- residual activity ([19]; compound 10.0 µM): 45%
- residual activity ([20]; compound 0.1 µM): 85%
- residual activity ([20]; compound 1.0 µM): 32%
- residual activity ([20]; compound 10.0 µM): 6%
- residual activity ([21]; compound 0.1 µM): 81%
- residual activity ([21]; compound 1.0 µM): 68%
- residual activity ([21]; compound 10.0 µM): 13%
- residual activity ([22]; compound 0.1 µM): 92%
- residual activity ([22]; compound 1.0 µM): 97%
- residual activity ([22]; compound 10.0 µM): 85%
- residual activity [23]: 98%
- residual activity ([24]; compound 0.1 µM): 107%
- residual activity ([24]; compound 1.0 µM): 77%
- residual activity ([24]; compound 10.0 µM): 73%
- residual activity [25]: 93%
- residual activity ([27]; compound 0.1 µM): 106%
- residual activity ([27]; compound 1.0 µM): 1%
- residual activity ([27]; compound 10.0 µM): 0%
- residual activity ([28]; compound 0.1 µM): 56%
- residual activity ([28]; compound 1.0 µM): 9%
- residual activity ([28]; compound 10.0 µM): 1%
- residual activity ([29]; compound 0.1 µM): 106%
- residual activity ([29]; compound 1.0 µM): 104%
- residual activity ([29]; compound 10.0 µM): 35%
- residual activity ([30]; compound 0.1 µM): 98%
- residual activity ([30]; compound 1.0 µM): 58%
- residual activity ([30]; compound 10.0 µM): 26%
- residual activity ([31]; compound 0.1 µM): 96%
- residual activity ([31]; compound 10.0 µM): 46%
- residual activity ([32]; compound 0.1 µM): 100%
- residual activity ([32]; compound 1.0 µM): 61%
- residual activity ([32]; compound 10.0 µM): 33%
- residual activity [33]: 101%
- residual activity ([34]; compound 0.1 µM): 99%
- residual activity ([34]; compound 1.0 µM): 77%
- residual activity ([34]; compound 10.0 µM): 27%
- residual activity ([35]; compound 0.1 µM): 100%
- residual activity ([35]; compound 1.0 µM): 27%
- residual activity ([35]; compound 10.0 µM): 8%
- residual activity ([36]; compound 0.1 µM): 120%
- residual activity ([36]; compound 1.0 µM): 110%
SMILES: O=C(O)c1ccc(-c2c[nH]c3ncc(-c4ccccc4)cc23)cc1C1CCCC1
- residual activity ([26]; compound 0.1 µM): 23%
- residual activity ([26]; compound 1.0 µM): 32%
- residual activity ([26]; compound 10.0 µM): 23%

— the kinase profiling compilation of Christmann-Franck et al. (2016)
